Test results: patent US20210038569A1, “COMPOSITIONS AND METHODS FOR TREATING PIGMENTATION DISORDERS” (Timber Pharmaceuticals, Inc., priority 2018, published 2021)
“Also recorded” adds a separate entry of the source. Like-named read-outs stand apart in the source and are kept apart here.

Experiments:
[1] = system: normal human dermal fibroblasts (NHDFs) stimulated with TGF-β1; experiment: Apoptosis (Caspase-Glo 3/7) in TGF-β1 induced normal human dermal fibroblasts; assay type: cell-based; settings: for Apoptosis: 48 hours, 50 ng/mL TGF-β1; for Apoptosis, result in words: after treatment, compared with vehicle control and between compounds
Protocol: For these assays cells were grown for 48 hours in the presence of vehicle control, sitaxentan, and bosentan. The appropriate assay reagents and measuring techniques were used as indicated herein. Normal human dermal fibroblast cells (LLCT FC0024 lot 03869_ fibroblast) were seeded to confluence in 96 well plates in 10% fetal bovine serum (FBS) Dulbecco's modified eagle medium (DMEM). The cells were washed to remove the FBS, and serum free media was added overnight (O/N). The cells were then stimulated with 50 ng/mL TGF-β1 and treated. For the apoptosis assay: 100 μl of Caspase-Glo® 3/7 Reagent (Promega, Cat #G6320), for the apoptosis assay, was added and briefly mixed. The plate was incubated for 30 minutes at room temperature prior to measurement of luminescence Data were analyzed using GraphPad Prism 7. Six to nine replicates were run for each sample.

[2] = system: primary normal human adult melanocytes; experiment: Melanin content in melanocytes; assay type: cell-based; settings: for Melanin Content (absorbance at 400 nm): 24 hours
Protocol: (§1) The effect of sitaxentan on human melanocytes was measured. For these assays cells were grown for 24 hours in the presence of vehicle control, sitaxentan, and bosentan. The appropriate assay reagents and measuring techniques were used as indicated herein. Melanocytes, from either Caucasian or African American donors, were grown to confluence in 6-well tissue culture plates using LLCT DermaLife Ma complete medium and treated with compounds for 24 hours. Treated cells were removed from the plate with 0.25% trypsin for 10 minutes and then centrifuged at 0.4 g for 5 minutes. The resulting cell pellet was resuspended in 50 μL of 1M NaOH/10% DMSO solution. The resultant suspension was vortexed for 30 seconds. The suspension was then baked in a drying oven at 80° C. for 1 hour. The suspension was vortexed again for 30 seconds and then transferred to a black half-area 96-well plate and read in a UV/VIS spectrophotometer at 400 nm. Data were analyzed using GraphPad Prism 7.

[3] = system: normal human dermal fibroblasts (NHDFs) stimulated with TGF-β1; experiment: Cell cytotoxicity in TGF-β1 induced normal human dermal fibroblasts; assay type: cell-based; settings: for Cell Cytotoxicity: 48 hours, 50 ng/mL TGF-β1; for Cytotoxicity, result in words: compared with vehicle control and between compounds
Protocol: The effect of sitaxentan on cell viability, cell cytotoxicity, and apoptosis was measured in an assay using normal human dermal fibroblasts induced with TGF-β1 into a profibrotic phenotype. For these assays cells were grown for 48 hours in the presence of vehicle control, sitaxentan, and bosentan. The appropriate assay reagents and measuring techniques were used as indicated herein.
normal human dermal fibroblast cells (LLCT FC0024 lot 03869_ fibroblast) were seeded to confluence in 96 well plates in 10% fetal bovine serum (FBS) Dulbecco's modified eagle medium (DMEM).
The cells were washed to remove the FBS, and serum free media was added overnight (O/N).
The cells were then stimulated with 50 ng/mL TGF-β1 and treated.
For the cell cytotoxicity assay:
20 μl of the Cytotoxicity Reagent (Promega, Cat #G6320) containing both GF-AFC Substrate and bis-AAF-R110 Substrate, for measuring dead cells (cytotoxicity), was added and briefly mixed.
The plates for the different assays were then incubated for 30 minutes at 37° C.
Fluorescence was measured at: 400Ex/505Em (Viability) and 485Ex/520Em (Cytotoxicity)
Data were analyzed using GraphPad Prism 7.
Six to nine replicates were run for each sample.

[4] = system: primary normal human adult melanocytes; experiment: Melanin content in melanocytes; assay type: cell-based; settings: for Melanin Content (absorbance at 400 nm): 24 hours; remark: listed apart in the source
Protocol: as §1

[5] = system: normal human dermal fibroblasts (NHDFs) stimulated with TGF-β1; experiment: Cell viability in TGF-β1 induced normal human dermal fibroblasts; assay type: cell-based; settings: for Cell Viability: 48 hours, 50 ng/mL TGF-β1
Protocol: For these assays cells were grown for 48 hours in the presence of vehicle control, sitaxentan, and bosentan. The appropriate assay reagents and measuring techniques were used as indicated herein. Normal human dermal fibroblast cells (LLCT FC0024 lot 03869_ fibroblast) were seeded to confluence in 96 well plates in 10% fetal bovine serum (FBS) Dulbecco's modified eagle medium (DMEM). The cells were washed to remove the FBS, and serum free media was added overnight (O/N). The cells were then stimulated with 50 ng/mL TGF-β1 and treated. For the cell viability assay: 20 μl of the Viability Reagent (Promega, Cat #G6320) containing both GF-AFC Substrate and bis-AAF-R110 Substrate, for measuring live cell viability, was added and briefly mixed. The plates for the different assays were then incubated for 30 minutes at 37° C. […] Data were analyzed using GraphPad Prism 7. Six to nine replicates were run for each sample.

[6] = cited from earlier work
[7] = in vivo; cited from earlier work
[8] = target: T1, endothelin-A (ET-A) receptor (Homo sapiens, UniProt P25101); settings: cited from earlier work
T1 sequence (P25101 21-427): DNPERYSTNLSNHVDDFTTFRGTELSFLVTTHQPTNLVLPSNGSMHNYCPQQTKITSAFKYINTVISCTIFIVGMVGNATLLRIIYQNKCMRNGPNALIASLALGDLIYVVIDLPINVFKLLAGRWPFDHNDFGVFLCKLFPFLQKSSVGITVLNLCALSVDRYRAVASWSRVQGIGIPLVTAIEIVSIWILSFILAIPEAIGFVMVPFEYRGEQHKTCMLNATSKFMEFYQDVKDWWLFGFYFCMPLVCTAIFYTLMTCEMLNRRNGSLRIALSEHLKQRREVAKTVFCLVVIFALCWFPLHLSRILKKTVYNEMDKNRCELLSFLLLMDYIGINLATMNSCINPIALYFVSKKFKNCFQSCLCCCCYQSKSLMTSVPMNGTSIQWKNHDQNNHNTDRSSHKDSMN

`COc1ccccc1Oc1c(NS(=O)(=O)c2ccc(C(C)(C)C)cc2)nc(-c2ncccn2)nc1OCCO` [bosentan] showed an Apoptosis ([1]; 1 μM) of 39366.8 RLUs, an Apoptosis ([1]; 3 μM) of 38639.8 RLUs and an Apoptosis ([1]; 10 μM) of 38586.7 RLUs. The Apoptosis ([1]; 30 μM) was 42825.2 RLUs, the Apoptosis ([1]; 100 μM) was 43330.7 RLUs and the “Apoptosis, result in words” value [1] was “elevated”. For the same molecule, the “Effect on melanin content, result in words” value (from here on “Effect on melanin content”) [2] was “no effect on melanin content”, the “Melanin Content (absorbance at 400 nm)” value ([2]; 30 μM) was 0.511 and the “Melanin Content (absorbance at 400 nm)” value ([2]; 100 μM) was 0.497. The “Cell Cytotoxicity” value ([3]; 1 μM) was 4256.9 RFUs, the “Cell Cytotoxicity” value ([3]; 3 μM) was 3954.2 RFUs and the “Cell Cytotoxicity” value ([3]; 10 μM) was 3764.0 RFUs. For the same molecule, the “Cell Cytotoxicity” value ([3]; 30 μM) was 4607.5 RFUs, the “Cell Cytotoxicity” value ([3]; 100 μM) was 3929.0 RFUs and the “Cytotoxicity, result in words” value [3] was “neither bosentan nor sitaxentan was significantly more cytotoxic than the vehicle control; also recorded: significantly more cytotoxic than sitaxentan”. For the same molecule, the “Effect on melanin content” value [4] was “no effect on melanin content”, the “Melanin Content (absorbance at 400 nm)” value ([4]; 30 μM) was 0.633 and the “Melanin Content (absorbance at 400 nm)” value ([4]; 100 μM) was 0.703. For the same molecule, the “Cell Viability” value ([5]; 1 μM) was 5406.8 RFUs, the “Cell Viability” value ([5]; 3 μM) was 5548.5 RFUs and the “Cell Viability” value ([5]; 10 μM) was 5521.2 RFUs. The “Cell Viability” value ([5]; 30 μM) was 5537.0 RFUs and the “Cell Viability” value ([5]; 100 μM) was 5584.3 RFUs.

With `Cc1cc2c(cc1CC(=O)c1sccc1S(=O)(=O)Nc1onc(C)c1Cl)OCO2` [sitaxentan, N-(4-Chloro-3-methyl-5-isoxazolyl)-2-[(2-methyl-4,5-methylenedioxyphenyl)-acetyl]thiophene-3-sulfonamide] the Apoptosis ([1]; 1 μM) was 37593.4 RLUs, the Apoptosis ([1]; 3 μM) was 39162.8 RLUs and the Apoptosis ([1]; 10 μM) was 39512.0 RLUs. The Apoptosis ([1]; 30 μM) was 46053.5 RLUs, the Apoptosis ([1]; 100 μM) was 51050.2 RLUs and the “Apoptosis, result in words” value [1] was “elevated; also recorded: significantly more potent effect than bosentan”. For the same molecule, the “Effect on melanin content” value [2] was “superior to bosentan in reducing the melanin content; also recorded: significantly more effective than a vehicle control at reducing melanin content; also recorded: significantly decreased melanin content”, the “Melanin Content (absorbance at 400 nm)” value ([2]; 30 μM) was 0.471 and the “Melanin Content (absorbance at 400 nm)” value ([2]; 100 μM) was 0.46. For the same molecule, the Protein binding [6] was greater than 99%, the “Cell Cytotoxicity” value ([3]; 1 μM) was 4643.9 RFUs and the “Cell Cytotoxicity” value ([3]; 3 μM) was 5058.3 RFUs. The “Cell Cytotoxicity” value ([3]; 10 μM) was 4741.7 RFUs, the “Cell Cytotoxicity” value ([3]; 30 μM) was 3837.5 RFUs and the “Cell Cytotoxicity” value ([3]; 100 μM) was 2911.3 RFUs. The “Cytotoxicity, result in words” value [3] was “neither bosentan nor sitaxentan was significantly more cytotoxic than the vehicle control”, the “Cytotoxicity, result in words” value ([3]; listed as sitaxsentan) was “significantly less cytotoxic to human skin cells than bosentan” and the “Effect on melanin content” value [4] was “superior to bosentan in reducing the melanin content; also recorded: significantly more effective than a vehicle control at reducing melanin content; also recorded: significantly decreased melanin content”. The “Melanin Content (absorbance at 400 nm)” value ([4]; 30 μM) was 0.579, the “Melanin Content (absorbance at 400 nm)” value ([4]; 100 μM) was 0.544 and the Metabolism [7] was “hepatic (CYP2C9- and CYP3A4-mediated)”. The “Selectivity for ET-A compared to ET-B (factor)” value [8] was 6000, the “Cell Viability” value ([5]; 1 μM) was 5678.3 RFUs and the “Cell Viability” value ([5]; 3 μM) was 5639.0 RFUs. For the same molecule, the “Cell Viability” value ([5]; 10 μM) was 5600.5 RFUs, the “Cell Viability” value ([5]; 30 μM) was 5250.8 RFUs and the “Cell Viability” value ([5]; 100 μM) was 5171.0 RFUs. For the same molecule, the “Toxicity (cell viability), result in words” value ([5]; concentrations up to 100 μM) was “no significant toxicity was observed”.
